The values below come from patent US20180353461A1, “USE OF CANNABINOIDS AS CERAMIDE-GENERATING ANTICANCER AGENTS IN TUMORS OF THE HEMATOPOIETIC AND LYMPHOID TISSUES” (priority 2014, published 2018).

The subject of assay [1] is HL60 cells. As to the kind of experiment: Western blot time course of apoptotic proteins in HL60 cells. The class given is cell-based, human. The protocol: Protein analyses were performed by Western blot in several sets of assays: expression pattern of CBs-receptors in AML cell lines and primary cells, and time course after treatment with cannabinoids in AML cell lines.
Cells were solubilized with ice-cold lysis buffer containing 2% ASB-14 (CalbioChem, San Diego, Calif., USA), 1% Nonidet P-40 (Ipegal®), 137 mM NaCl, 20 mM Tris-HCl pH 7.5 at 4° C. (all from Sigma-Aldrich), 2 mM Na3VO4, 20 mM NaF (New England BioLabs Inc., Ipswich, Mass., USA), 2 mM DTT (AppliChem, Darmstadt, Germany), protease inhibitor cocktail (Roche Diagnostics GmbH, Mannheim, Germany), and 10 ul Nuclease Mix (Amersham GE Healthcare, Uppsala, Sweden). Insoluble materials were removed by centrifugation at 13,000×g for 15 min at 4° C. Protein content was determined by Pierce® Microplate BCA Protein Assay kit-Reducing Agent Compatible (Thermo Fisher Scientific).
(§1) Extracted proteins (15-25 ug/well) were separated by sodium dodecyl sulfate-polyacrylamide gel electrophoresis (SDS/PAGE) in pre-cast polyacrylamide gels AnykD (Bio-Rad Laboratories, Hercules, Calif., USA) under reducing and denaturing conditions. Electrophoretic run was performed at a constant current of 15 mA per gel in a Mini-Protean® Tetra Cell (Bio-Rad Laboratories) and were electrophoretically transferred onto PVDF membranes using Trans-Blot® Turbo™ System (Bio-Rad Laboratories). Blocking was performed with 2% bovine serum albumin [(BSA), Santa Cruz Biotechnology] in Tween-Tris buffer saline (TTBS). Membranes were incubated overnight at 4° C. with corresponding primary antibody in TTBS.
Detection was performed using Western Blotting Luminol Reagent (Santa Cruz Biotechnology).
As in the case of MM cells, the antiproliferative effect of cannabinoids in AML is mediated by apoptotic mechanisms. […] Next, we evaluated Casp-3 activation using an antibody that recognizes the active forms of Casp-3, this is, the […]. […]
Background: In western blotting, separated proteins are transferred to a membrane and probed.

Assay [2] concerns HL60 cells. Description: Western blot of ER-stress regulator proteins in HL60 cells. The class given is cell-based, human. The settings on record: HL60, WIN-55 50 uM. The protocol: FIG. 19. […] Expression analysis by Western blot of regulator proteins of ER-stress in HL60 cells treated with WIN-55 50 uM.
as §1

In the case of `CS(=O)(=O)O.Cc1c(C(=O)c2cccc3ccccc23)c2cccc3c2n1[C@H](CN1CCOCC1)CO3` [WIN-55, (R)-(+)-[2,3-dihydro-5-methyl-3-(4-morpholinylmethyl)-pyrrolo-[1,2,3]-1,4-benzoxazin-6-yl]-1-naphthalenylmethanone mesylate], the “full-length PARP” value with HL60 cells [1] (HL60, WIN-55 50 uM, time course) was “decrease”. In addition, in the assay on HL60 cells [1] (HL60, time course), the “85 kDa fragment of PARP” value was “increase” and the “expression of the active 12 kDa-cleaved form of Casp-3” value is “increased over time”. Also, the “ER-stress in AML cells” value in the assay on HL60 cells [2] is “increase the ER-stress”.
